Results from patent US20240059685A1, “PIEZO1 AGONISTS FOR THE PROMOTION OF BONE FORMATION” (BIOVENTURES, LLC, priority 2019, published 2024).
Entries after “also recorded” stand apart in the source; their conditions may differ.

Target: T1, Piezo1 (Mus musculus, UniProt E2JF22)
T1 construct: To identify Piezo1 stimulators, we treated MLO-Y4 cells with compounds; endogenous in cells; host or cells: MLO-Y4 (murine osteocyte-like cell line); control sh-Luc cells, with sh-Piezo1 knock-down cells as the specificity control
T1 sequence (E2JF22 whole entry): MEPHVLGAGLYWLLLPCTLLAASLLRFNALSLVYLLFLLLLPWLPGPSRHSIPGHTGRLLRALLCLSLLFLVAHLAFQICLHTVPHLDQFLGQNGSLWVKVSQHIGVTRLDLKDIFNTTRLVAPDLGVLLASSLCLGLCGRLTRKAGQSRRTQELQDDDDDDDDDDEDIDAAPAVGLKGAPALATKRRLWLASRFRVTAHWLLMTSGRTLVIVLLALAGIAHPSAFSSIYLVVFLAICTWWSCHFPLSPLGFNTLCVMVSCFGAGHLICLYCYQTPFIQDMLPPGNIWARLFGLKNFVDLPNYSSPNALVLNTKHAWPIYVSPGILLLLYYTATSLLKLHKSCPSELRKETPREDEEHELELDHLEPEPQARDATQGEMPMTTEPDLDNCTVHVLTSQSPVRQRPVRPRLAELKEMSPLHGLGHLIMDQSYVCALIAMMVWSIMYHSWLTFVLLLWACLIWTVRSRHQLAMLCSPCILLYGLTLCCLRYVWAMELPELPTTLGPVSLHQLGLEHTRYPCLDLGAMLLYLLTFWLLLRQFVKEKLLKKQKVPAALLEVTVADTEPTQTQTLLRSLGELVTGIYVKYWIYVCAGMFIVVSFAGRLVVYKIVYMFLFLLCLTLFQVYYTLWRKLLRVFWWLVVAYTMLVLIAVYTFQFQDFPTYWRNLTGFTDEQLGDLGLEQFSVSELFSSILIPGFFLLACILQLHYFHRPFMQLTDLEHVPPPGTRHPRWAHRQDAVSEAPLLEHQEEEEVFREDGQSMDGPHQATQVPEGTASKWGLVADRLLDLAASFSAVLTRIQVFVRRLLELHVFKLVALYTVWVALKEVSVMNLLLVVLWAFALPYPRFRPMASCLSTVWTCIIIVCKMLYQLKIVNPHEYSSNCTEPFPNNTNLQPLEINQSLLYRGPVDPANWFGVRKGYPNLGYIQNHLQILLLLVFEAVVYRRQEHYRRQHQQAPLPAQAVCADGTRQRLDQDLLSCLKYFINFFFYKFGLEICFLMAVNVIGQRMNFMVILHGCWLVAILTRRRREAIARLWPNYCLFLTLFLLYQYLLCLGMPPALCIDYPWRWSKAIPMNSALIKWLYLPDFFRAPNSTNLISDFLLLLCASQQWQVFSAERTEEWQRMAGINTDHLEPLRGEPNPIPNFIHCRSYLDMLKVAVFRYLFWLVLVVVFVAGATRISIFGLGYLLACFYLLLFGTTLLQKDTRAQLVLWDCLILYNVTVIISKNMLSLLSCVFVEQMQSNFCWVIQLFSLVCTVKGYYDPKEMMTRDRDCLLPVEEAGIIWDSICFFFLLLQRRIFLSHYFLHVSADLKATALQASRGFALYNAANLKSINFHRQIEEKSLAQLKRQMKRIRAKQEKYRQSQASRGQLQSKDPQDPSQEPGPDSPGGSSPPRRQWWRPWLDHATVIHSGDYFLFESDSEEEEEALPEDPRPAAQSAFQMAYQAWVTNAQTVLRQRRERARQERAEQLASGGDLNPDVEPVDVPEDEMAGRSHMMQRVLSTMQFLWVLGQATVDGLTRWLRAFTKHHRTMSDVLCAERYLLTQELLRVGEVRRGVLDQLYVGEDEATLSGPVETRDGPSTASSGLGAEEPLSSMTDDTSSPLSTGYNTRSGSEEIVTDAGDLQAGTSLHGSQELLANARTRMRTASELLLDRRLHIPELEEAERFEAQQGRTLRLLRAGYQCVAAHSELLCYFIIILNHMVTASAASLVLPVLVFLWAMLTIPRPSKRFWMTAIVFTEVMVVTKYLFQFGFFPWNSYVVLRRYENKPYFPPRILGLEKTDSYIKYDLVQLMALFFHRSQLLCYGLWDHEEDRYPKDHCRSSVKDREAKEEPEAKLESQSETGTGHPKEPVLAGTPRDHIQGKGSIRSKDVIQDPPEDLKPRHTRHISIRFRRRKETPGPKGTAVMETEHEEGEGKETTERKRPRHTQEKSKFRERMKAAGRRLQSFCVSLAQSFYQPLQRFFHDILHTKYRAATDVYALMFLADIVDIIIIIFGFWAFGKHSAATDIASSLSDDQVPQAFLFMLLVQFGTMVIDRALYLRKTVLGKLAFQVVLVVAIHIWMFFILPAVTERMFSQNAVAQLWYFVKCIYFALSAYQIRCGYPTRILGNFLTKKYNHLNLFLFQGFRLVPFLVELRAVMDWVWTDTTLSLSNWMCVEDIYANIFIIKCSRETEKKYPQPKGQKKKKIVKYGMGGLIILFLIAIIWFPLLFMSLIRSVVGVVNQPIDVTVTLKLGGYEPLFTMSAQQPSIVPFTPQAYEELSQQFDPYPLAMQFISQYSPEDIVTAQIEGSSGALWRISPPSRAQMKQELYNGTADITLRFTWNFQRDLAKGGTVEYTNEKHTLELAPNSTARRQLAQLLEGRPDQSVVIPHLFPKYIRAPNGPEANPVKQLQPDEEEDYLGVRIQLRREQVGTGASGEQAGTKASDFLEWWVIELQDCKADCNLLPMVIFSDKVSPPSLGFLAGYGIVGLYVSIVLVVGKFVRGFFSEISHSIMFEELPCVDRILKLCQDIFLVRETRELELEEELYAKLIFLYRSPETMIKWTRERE
Assay: qPCR gene expression of Wnt1, Ptgs2 and Tnfrsf11b in MLO-Y4 cells
Format: cell-based, murine
Settings: 10 μM, 2 hours
Method: Cell cultures. MLO-Y4 cells were cultured in α-MEM supplemented with 5% FBS, 5% BCS, and 1% penicillin/streptomycin/glutamine. Fifteen dynes/cm^2 oscillatory fluid shear stress was applied on MLO-Y4 cells at 1 Hz for 2 hours using an IBDI pump system (IBIDI, German). For Yoda1 treatment, cells were cultured in the presence of 10 μM Yoda1 (Sigma, St. Louis, MO) or DMSO for 2 hours. Immediately after the treatments, we isolated RNA from cells using RNeasy mini kit (Qiagen, German) for qPCR or RNA-seq analysis. To silence Piezo1, we generated Piezo1 shRNA expression plasmid using the following oligonucleotides in the pLKO.1-TRC cloning vector (Addgene Plasmid #10878, a gift from David Root): forward oligo: 5′-CCGGTC-[…]-3′ (SEQ ID NO: 1); reverse oligo: 5′-[…]-CGA-3′ (SEQ ID NO: 2) (Zhang et al., 2017). Yap1 shRNA (TRCN0000238432) and Taz shRNA (TRCN0000095951) were purchased from Sigma (St. Louis, MO). A shRNA against firefly luciferase was used as a control (Sigma, St. Louis, MO). For virus production, HEK293T cells were cultured in a 6-well culture plate and co-transfected with a total 3 μg of lentiviral shRNA vector, pMD2G (Addgene plasmid #12259, a gift from Didier Trono), and psPAX2 (Addgene plasmid #12260, a gift from Didier Trono) at the ratio of 2:0.9:0.4 using TransIT-LT1 transfection reagent (Mirus, Madison, WI). Culture media was changed 12 hours after transfection and viral supernatants were collected 48 hours after media change. Viral supernatants were filtered through a 0.45 μm filter and used immediately to transduce cells cultured in a 10 cm dish. Cells were then subjected to selection with G418 (100 μg/ml) or puromycin (25 μg/ml) for 5 days before treatment. To overexpress Piezo1 in MLO-Y4 cells, we transfected mPiezo1-IRES-eGFP (Addgene plasmid #80925, a gift from Ardem Patapoutian) into MLO-Y4 cells using TransIT-LT1 transfection reagent (Mirus, Madison, WI) and then treated these cells with 15 dynes/cm^2 oscillatory fluid shear stress at 1 Hz for 2 hours. Plasmids for expression of Cas9 and sgRNAs for knocking out Piezo1 in UAMS-32 cells were prepared by inserting oligonucleotides encoding the desired sgRNA sequence into the pX458 vector using the protocol recommended by the Zhang laboratory (Cong et al., 2013). Plasmids expressing Cas9 and Piezo1 sgRNAs were transfected into UAMS-32 cells using TransIT-LT1 transfection reagent (Mirus, Madison, WI). Cells were sorted into 96-well plates for single cell cloning 48 hours after transfection. Single cell colonies were then screened for homozygous deletion using the following primers: Forward: 5′-[…]-3′ (SEQ ID NO: 5), Reverse: 5′-[…]-3′ (SEQ ID NO: 6). All homozygous mutant cell colonies were then pooled together for further analysis. Cas9 transfected cells were used as a control. All in vitro cell culture experiments were performed three times with three technical replicates.
Quantitative PCR. Organs and whole bones were harvested from animals, removed of soft tissues, and stored immediately in liquid nitrogen. We prepared osteocyte-enriched bone by removing the ends of femurs and tibias and then flushing the bone marrow with PBS. We then scraped the bone surface with a scalpel and froze them in liquid nitrogen for later RNA isolation, or decalcified them for genomic DNA isolation. We isolated total RNA using TRIzol (Life technologies, NY), according to the manufacturer's instructions and prepared cDNA using High Capacity first strand cDNA synthesis kit (Life Technologies). We performed quantitative RT-PCR using the following Taqman assays from Applied Biosystems: Piezo1 (Mm01241549_m1); Piezo2 (Mm01265861_m1); Ptgs2 (Mm00478374_m1); Cyr61 (Mm00487498_m1); Wnt1 (Mm01300-555_g1); Yap1 (Mm011432-63_m1); Taz (Mm01289583_m1); Tnfsf11 Mm00441906_m1; Tnfrsf11b (Mm00435452_m1); Sost (Mm00470479_m1); and ribosomal protein S2 (Mrps2) (Mm00475529_m1). We calculated relative mRNA amounts using the ΔCt method (Livak and Schmittgen, 2001). […]

[1] = Yap1/Taz knock-down MLO-Y4 cells

Compound	Ptgs2 expression compared with positive control Yoda1 (MLO-Y4 cells)	Ptgs2 expression compared with vehicle (MLO-Y4 cells)	Tnfrsf11b expression compared with vehicle (MLO-Y4 cells)	Wnt1 expression compared with positive control Yoda1 (MLO-Y4 cells)	Wnt1 expression compared with vehicle (MLO-Y4 cells)	changes in gene expression (Ptgs2, Wnt1, Tnfrsf11b) after silencing of Piezo1 (Piezo1 knock-down MLO-Y4 cells)	increase of Ptgs2 after silencing Yap1 and Taz [1]	increase of Tnfrsf11b after silencing Yap1 and Taz [1]	increase of Wnt1 after silencing Yap1 and Taz [1]
Fc1ccc(Cl)c(CSc2nnc(-c3cnccn3)s2)c1Cl [YW-3-170]	higher Ptgs2 expression than the positive control	higher Ptgs2 expression	higher Tnfrsf11b expression	higher Wnt1 expression than the positive control	higher Wnt1 expression	–	–	–	–
Clc1cccc(Cl)c1CSc1nnc(-c2cnccn2)s1 [Yoda1]	–	stimulated expression; also recorded: higher Ptgs2 expression	stimulated expression; also recorded: higher Tnfrsf11b expression	–	stimulated expression; also recorded: higher Wnt1 expression	completely prevented	significantly blunted	significantly blunted	significantly blunted
